Experimental data: the supplement of paper PMC10307832

Legend:
Assay in all cases: relative viability (nuclei count vs DMSO), 5 days (fraction); higher = more cells survive
[1] = compound: C1=CC2=C(C=C(C(=C2N=C1)O)N=NC3=CC4=C(C=C3)C=C(C=C4)S(=O)(=O)O)S(=O)(=O)O + NC(=O)Nc1cc(-c2cccc(F)c2)sc1C(=O)N[C@H]1CCCNC1 [AZD7762] (partner 0.2 µM)
Summary of the method: (§1)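 Values are medians from duplicate plates. Each reflects relative viability, defined as the nuclei count of treated wells over that of vehicle wells. Lung cancer cell lines in 1536-well plates were pin-tool dosed one day after seeding with one drug alone or with a fixed anchor-drug dose plus five library-drug doses (not always all listed) in √10 steps, then fixed, stained and imaged at 4× after 5 days.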

[2] = compound: C1=CC2=C(C=C(C(=C2N=C1)O)N=NC3=CC4=C(C=C3)C=C(C=C4)S(=O)(=O)O)S(=O)(=O)O + CCNC(=O)c1noc(-c2cc(C(C)C)c(O)cc2O)c1-c1ccc(CN2CCOCC2)cc1 [Luminespib] (partner 0.01 µM)
Summary of the method: as §1

AT-7519 + Palbociclib = compound: O=C(NC1CCNCC1)c1n[nH]cc1NC(=O)c1c(Cl)cccc1Cl [AT-7519] + CC(=O)c1c(C)c2cnc(Nc3ccc(N4CCNCC4)cn3)nc2n(C2CCCC2)c1=O [Palbociclib] (partner 0.5 µM)
Summary of the method: as §1

[3] = compound: C1=CC2=C(C=C(C(=C2N=C1)O)N=NC3=CC4=C(C=C3)C=C(C=C4)S(=O)(=O)O)S(=O)(=O)O + CC(=O)c1c(C)c2cnc(Nc3ccc(N4CCNCC4)cn3)nc2n(C2CCCC2)c1=O [Palbociclib] (partner 0.5 µM)
Summary of the method: as §1

Cell Line | relative viability ([1]; first compound 0.08 µM) | relative viability ([1]; first compound 0.253 µM) | relative viability ([1]; first compound 0.8 µM) | relative viability ([1]; first compound 2.53 µM) | relative viability ([1]; first compound 8 µM) | relative viability ([2]; first compound 0.253 µM) | relative viability ([2]; first compound 0.8 µM) | relative viability ([2]; first compound 2.53 µM) | relative viability ([2]; first compound 8 µM) | relative viability (AT-7519 + Palbociclib; first compound 0.01 µM) | relative viability (AT-7519 + Palbociclib; first compound 0.03162 µM) | relative viability (AT-7519 + Palbociclib; first compound 0.3162 µM) | relative viability (AT-7519 + Palbociclib; first compound 1 µM) | relative viability ([3]; first compound 0.08 µM) | relative viability ([3]; first compound 0.253 µM) | relative viability ([3]; first compound 0.8 µM) | relative viability ([3]; first compound 2.53 µM) | relative viability ([3]; first compound 8 µM) | relative viability ([2]; first compound 0.08 µM)
HCC-44 | 1.01 | 1.03 | 0.997 | 1.05 | 1.04 | 1.08 | 1.05 | 1.19 | 1.01 | 0.975 | 0.961 | 0.965 | 0.901 | 1.02 | 0.96 | 0.964 | 1.01 | 0.975 | 
HCC-827 | 0.184 | 0.279 | 0.235 | 0.192 | 0.246 | 0.576 | 0.592 | 0.693 | 0.683 | 0.433 | 0.494 | 0.478 | 0.398 | 0.537 | 0.451 | 0.492 | 0.455 | 0.542 | 0.859
NCI-H1623 |  |  |  |  |  | 0.471 | 0.471 | 0.503 | 0.559 |  |  |  |  |  |  |  |  |  | 0.747
NCI-H2347 | 0.838 | 0.734 | 0.846 | 1.01 | 0.705 | 0.523 | 0.36 | 0.824 | 0.317 | 0.397 | 0.44 | 0.469 | 0.374 | 0.459 | 0.447 | 0.44 | 0.482 | 0.426 | 0.77
PC-14 | 0.353 | 0.294 | 0.305 | 0.375 | 0.328 | 0.139 | 0.152 | 0.148 | 0.0819 | 0.433 | 0.502 | 0.338 | 0.0604 | 0.653 | 0.52 | 0.548 | 0.597 | 0.474 | 0.141
NCI-H1650 |  |  |  |  |  | 0.177 | 0.194 | 0.191 | 0.184 | 0.284 | 0.331 | 0.27 | 0.164 | 0.369 | 0.302 | 0.301 | 0.328 | 0.308 | 0.197
HCC-78 | 0.725 | 0.628 | 0.675 | 0.657 | 0.591 |  |  |  |  | 0.423 | 0.431 | 0.611 | 0.479 | 0.566 | 0.463 | 0.505 | 0.45 | 0.466 | 
NCI-H1563 |  |  |  |  |  | 0.522 | 0.489 | 0.498 | 0.404 |  |  |  |  |  |  |  |  |  | 0.514
COR-L23 |  |  |  |  |  | 0.581 | 0.64 | 0.726 | 0.738 | 0.306 | 0.28 | 0.265 | 0.157 | 0.326 | 0.346 | 0.274 | 0.299 | 0.39 | 0.748
NCI-H1703 | 0.147 | 0.163 | 0.13 |  | 0.16 |  |  |  |  |  |  |  |  |  |  |  |  |  | 
SK-LU-1 |  |  |  |  |  | 0.203 | 0.208 | 0.209 | 0.175 | 0.38 | 0.361 | 0.361 | 0.311 | 0.456 | 0.391 | 0.344 | 0.399 | 0.428 | 0.175
COR-L 105 |  |  |  |  |  | 0.722 | 0.99 | 0.697 | 0.489 | 0.382 | 0.416 | 0.371 | 0.354 | 0.391 | 0.433 | 0.449 | 0.426 | 0.384 | 0.786
HCC-366 | 0.291 | 0.273 | 0.26 | 0.272 | 0.291 |  |  |  |  | 0.393 | 0.228 | 0.317 | 0.139 | 0.459 | 0.385 | 0.377 | 0.391 | 0.325 | 
NCI-H1648 |  | 0.712 |  |  | 0.717 |  |  |  |  | 0.32 |  | 0.242 | 0.245 |  | 0.29 |  |  | 0.301 | 
NCI-H596 | 1.25 | 1.12 | 1.13 | 1.04 | 1.17 | 1.09 | 1.05 | 1.11 | 0.832 |  |  |  |  |  |  |  |  |  | 1.16
NCI-H2228 |  |  |  |  |  | 0.13 | 0.134 | 0.166 | 0.0984 | 0.638 | 0.642 | 0.636 | 0.408 | 0.81 | 0.726 | 0.79 | 0.822 | 0.92 | 0.136
SK-MES-1 |  |  |  |  |  | 0.818 | 0.735 | 0.662 | 0.783 | 0.304 | 0.31 | 0.295 | 0.204 | 0.351 | 0.332 | 0.34 | 0.318 | 0.342 | 0.786
SW 1573 |  |  |  |  |  | 0.598 | 0.268 | 0.372 | 0.216 | 0.38 | 0.368 | 0.212 | 0.109 | 0.463 | 0.41 | 0.397 | 0.38 | 0.0522 | 0.174
NCI-H661 |  |  |  |  |  | 0.887 | 0.847 | 0.945 | 0.849 | 0.382 | 0.432 | 0.4 | 0.256 | 0.4 | 0.407 | 0.44 | 0.443 | 0.421 | 0.932
NCI-H520 |  |  |  |  |  | 0.218 | 0.237 | 0.225 | 0.231 | 0.226 | 0.197 | 0.209 | 0.194 | 0.247 | 0.247 | 0.27 | 0.237 | 0.212 | 0.237
NCI-H2023 |  |  |  |  |  | 0.741 | 0.788 | 0.914 | 0.52 | 0.393 | 0.401 | 0.243 | 0.0824 | 0.451 | 0.395 | 0.391 | 0.421 | 0.309 | 0.87
NCI-H2009 |  |  |  |  |  | 0.995 | 1.04 | 1.14 | 0.623 | 0.209 | 0.2 | 0.19 | 0.18 | 0.221 | 0.22 | 0.245 | 0.214 | 0.192 | 1.08
